# Results published in patent publication US8686018B2, “Pharmaceutical composition” (Eisai R&D Management Co., Ltd., priority 2010, dated 2014).
# Target: T1, EP4 (Homo sapiens (Human), UniProt P35408)
# Assay: CRE-PLAP reporter assay
# Type: cell-based
# Conditions: SE302 (HEK/293 clone) cells with endogenous EP4, stimulated with 3 ng/mL PGE2 overnight
# Method: Cells were maintained in DMEM/F12 (50:50) (MediaTech) supplemented with 10% FBS (Tissue Culture Biologicals) plus penicillin/streptomycin. When used for assays, cells were plated in a 96-well plate at 2×10^4 cells/100 μL/well in serum-free assay medium (DMEM/F12 supplemented with 0.1% BSA plus penicillin/streptomycin) and incubated for 4-6 h.
# Exemplary compounds of the present invention were assayed according to the methods set forth above in the CRE-PLAP reporter assay described above.
# T1 sequence (P35408 whole entry): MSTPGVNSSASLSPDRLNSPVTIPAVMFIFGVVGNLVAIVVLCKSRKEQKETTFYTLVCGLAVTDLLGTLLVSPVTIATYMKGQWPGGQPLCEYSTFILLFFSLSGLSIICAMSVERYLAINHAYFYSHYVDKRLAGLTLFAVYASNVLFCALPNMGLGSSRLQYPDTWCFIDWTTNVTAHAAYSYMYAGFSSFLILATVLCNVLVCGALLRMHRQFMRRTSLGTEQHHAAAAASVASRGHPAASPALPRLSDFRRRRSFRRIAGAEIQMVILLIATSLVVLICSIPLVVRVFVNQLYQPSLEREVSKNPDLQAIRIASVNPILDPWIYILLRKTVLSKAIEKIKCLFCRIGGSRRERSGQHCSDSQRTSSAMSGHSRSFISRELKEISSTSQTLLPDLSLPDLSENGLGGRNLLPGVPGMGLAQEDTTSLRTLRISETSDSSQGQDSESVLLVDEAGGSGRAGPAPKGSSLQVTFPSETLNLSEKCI
row,Compound,IC50 [nM]
1,C[C@H](NC(=O)c1c(C(F)(F)F)nn(C)c1Oc1ccc(C(F)(F)F)cc1)c1ccc(C(=O)O)cc1 [ER-888365-00],28
2,Cc1nn(C)c(Oc2cc(F)ccc2Cl)c1C(=O)N[C@@H](C)c1ccc(C(=O)O)cc1 [ER-886025-00],4910
3,C[C@H](NC(=O)c1c(C(F)(F)F)nn(C)c1Oc1ccc(F)c(F)c1)c1ccc(C(=O)O)cc1 [ER-886073-00],109
4,Cc1nn(C)c(Oc2cccc(Cl)c2Cl)c1C(=O)N[C@@H](C)c1ccc(C(=O)O)cc1 [ER-886022-00],719
5,Cc1nn(C)c(Oc2ccc(Cl)cc2)c1C(=O)N[C@@H](C)c1ccc(C(=O)O)cc1 [ER-880663-00],619
6,COc1cc(OC)cc(Oc2c(C(=O)N[C@@H](C)c3ccc(C(=O)O)cc3)c(C)nn2C)c1 [ER-886035-00],3660
7,C[C@H](NC(=O)c1c(C(F)F)nn(C)c1Oc1ccc(C(F)(F)F)cc1)c1ccc(C(=O)O)cc1 [ER-888367-00],23
8,Cc1nn(C)c(Oc2cc(F)cc(Cl)c2)c1C(=O)N[C@@H](C)c1ccc(C(=O)O)cc1 [ER-886024-00],637
9,Cc1ccc(Oc2c(C(=O)N[C@@H](C)c3ccc(C(=O)O)cc3)c(C)nn2C)cc1 [ER-885749-00],451
10,C[C@H](NC(=O)c1c(C(F)(F)F)nn(C)c1Oc1ccc(Cl)cc1)c1ccc(C(=O)O)cc1 [ER-888369-00],89
11,C[C@H](NC(=O)c1c(C(F)F)nn(C)c1Oc1cccc(Cl)c1)c1ccc(C(=O)O)cc1 [ER-886045-00],18
12,Cc1cc(C)cc(Oc2c(C(=O)N[C@@H](C)c3ccc(C(=O)O)cc3)c(C)nn2C)c1 [ER-886033-00],2120
13,Cc1nn(C)c(Oc2ccc(Cl)c(Cl)c2)c1C(=O)N[C@@H](C)c1ccc(C(=O)O)cc1 [ER-885716-00],92
14,C[C@H](NC(=O)c1c(C(F)F)nn(C)c1Oc1ccc(Cl)c(Cl)c1)c1ccc(C(=O)O)cc1 [ER-888024-00],31
15,Cc1nn(C)c(Oc2cccc(F)c2F)c1C(=O)N[C@@H](C)c1ccc(C(=O)O)cc1 [ER-885719-00],2670
16,C[C@H](NC(=O)c1c(C(F)F)nn(C)c1Oc1cccc(C(F)F)c1)c1ccc(C(=O)O)cc1 [ER-887480-00],51
17,C[C@H](NC(=O)c1c(C(F)F)nn(C)c1Oc1ccc(Cl)cc1)c1ccc(C(=O)O)cc1 [ER-888371-00],89
18,Cc1nn(C)c(Oc2cc(Cl)cc(Cl)c2)c1C(=O)N[C@@H](C)c1ccc(C(=O)O)cc1 [ER-885721-00],846
19,Cc1nn(C)c(Oc2cc(F)ccc2F)c1C(=O)N[C@@H](C)c1ccc(C(=O)O)cc1 [ER-885720-00],2220
20,C[C@H](NC(=O)c1c(C(F)F)nn(C)c1Oc1cccc(OC(F)F)c1)c1ccc(C(=O)O)cc1 [ER-886090-00],17

# More lines, now with the values ahead:
row,IC50 [nM],Compound
1,132,C[C@H](NC(=O)c1c(C(F)(F)F)nn(C)c1Oc1cccc(F)c1)c1ccc(C(=O)O)cc1 [ER-886072-00]
2,88,C[C@H](NC(=O)c1c(C(F)(F)F)nn(C)c1Oc1cccc(OC(F)F)c1)c1ccc(C(=O)O)cc1 [ER-886082-00]
3,89,Cc1nn(C)c(Oc2cccc(OC(F)(F)F)c2)c1C(=O)N[C@@H](C)c1ccc(C(=O)O)cc1 [ER-886061-00]
4,9,Cn1nc(C(F)F)c(C(=O)NC2(c3ccc(C(=O)O)cc3)CC2)c1Oc1cccc(C(F)(F)F)c1 [ER-886078-00]
5,8,Cn1nc(C(F)(F)F)c(C(=O)NC2(c3ccc(C(=O)O)cc3)CC2)c1Oc1ccc(Cl)c(Cl)c1 [ER-888363-00]
6,17,Cn1nc(C(F)F)c(C(=O)NC2(c3ccc(C(=O)O)cc3)CC2)c1Oc1ccc(Cl)c(Cl)c1 [ER-888348-00]
7,10,C[C@H](NC(=O)c1c(C(F)(F)F)nn(C)c1Oc1ccc(Cl)c(Cl)c1)c1ccc(C(=O)O)cc1 [ER-886074-00]
8,187,C[C@H](NC(=O)c1c(C(F)(F)F)nn(C)c1Oc1cccc(C(F)F)c1)c1ccc(C(=O)O)cc1 [ER-887995-00]
9,467,Cc1nn(C)c(Oc2ccc(F)c(F)c2)c1C(=O)N[C@@H](C)c1ccc(C(=O)O)cc1 [ER-885718-00]
10,58,Cc1nn(C)c(Oc2cccc(OC(F)F)c2)c1C(=O)N[C@@H](C)c1ccc(C(=O)O)cc1 [ER-886080-00]
11,974,Cc1nn(C)c(Oc2cccc(F)c2)c1C(=O)N[C@@H](C)c1ccc(C(=O)O)cc1 [ER-885717-00]
12,273,Cc1nn(C)c(Oc2ccc(C(F)(F)F)cc2)c1C(=O)N[C@@H](C)c1ccc(C(=O)O)cc1 [ER-885311-00]
13,12,Cn1nc(C(F)(F)F)c(C(=O)NC2(c3ccc(C(=O)O)cc3)CC2)c1Oc1ccc(C(F)(F)F)cc1 [ER-888364-00]
14,13,Cn1nc(C(F)(F)F)c(C(=O)NC2(c3ccc(C(=O)O)cc3)CC2)c1Oc1cccc(C(F)(F)F)c1 [ER-885741-00]
15,45,C[C@H](NC(=O)c1c(C(F)(F)F)nn(C)c1Oc1cccc(Cl)c1)c1ccc(C(=O)O)cc1 [ER-885289-00]
16,85,Cc1nn(C)c(Oc2cccc(Cl)c2)c1C(=O)NC1(c2ccc(C(=O)O)cc2)CC1 [ER-886077-00]
17,27,C[C@H](NC(=O)c1c(C(F)(F)F)nn(C)c1Oc1cccc(C(F)(F)F)c1)c1ccc(C(=O)O)cc1 [ER-885291-00]
18,18,Cn1nc(C(F)(F)F)c(C(=O)NC2(c3ccc(C(=O)O)cc3)CC2)c1Oc1ccc(Cl)cc1 [ER-888368-00]
19,261,Cc1nn(C)c(Oc2ccc(F)cc2)c1C(=O)N[C@@H](C)c1ccc(C(=O)O)cc1 [ER-885302-00]
20,35,Cn1nc(C(F)F)c(C(=O)NC2(c3ccc(C(=O)O)cc3)CC2)c1Oc1ccc(Cl)cc1 [ER-888370-00]
21,168,Cc1nn(C)c(Oc2cccc(Cl)c2)c1C(=O)N[C@@H](C)c1ccc(C(=O)O)cc1 [ER-885744-00]
22,15,Cn1nc(C(F)F)c(C(=O)NC2(c3ccc(C(=O)O)cc3)CC2)c1Oc1ccc(C(F)(F)F)cc1 [ER-888366-00]
23,157,Cn1nc(C(F)F)c(C(=O)NC2(c3ccc(C(=O)O)cc3)CC2)c1Oc1cccc(Cl)c1 [ER-888355-00]
24,356,Cc1cccc(Oc2c(C(=O)N[C@@H](C)c3ccc(C(=O)O)cc3)c(C)nn2C)c1 [ER-886032-00]
25,12,Cc1nn(C)c(Oc2cccc(C(F)(F)F)c2)c1C(=O)NC1(c2ccc(C(=O)O)cc2)CC1 [ER-885740-00]
26,38,Cn1nc(C(F)(F)F)c(C(=O)NC2(c3ccc(C(=O)O)cc3)CC2)c1Oc1cccc(Cl)c1 [ER-885743-00]
27,18,Cc1nn(C)c(Oc2cccc(C(F)(F)F)c2)c1C(=O)N[C@@H](C)c1ccc(C(=O)O)cc1 [ER-885290-00]
28,219,Cc1nn(C)c(Oc2cccc(C(F)F)c2)c1C(=O)N[C@@H](C)c1ccc(C(=O)O)cc1 [ER-887495-00]

# Target: T1, EP4
# Assay: Radioligand EP4 receptor binding assay
# Conditions: Chem-1 cell membranes overexpressing human EP4, [3H]-PGE2 displacement
# Method: The radioligand EP4 binding assay was performed using ChemiScreen recombinant human EP4 receptor membrane preparations from Millipore, according to manufacturer's instructions. Briefly, membranes prepared from Chem-1 cells overexpressing human EP4 cDNA (Millipore) were mixed with 1.8 nmol.L^−1 [^3H]-PGE2 and 5 μmol.L^−1 unlabelled PGE2 in the presence or absence of various concentrations of testing compounds in binding buffer (50 mmol.L^−1 HEPES, pH 7.4, 5 mmol.L^−1 MgCl2, 1 mmol.L^−1 CaCl2, 0.2% BSA) in a nonbinding 96-well plate, and incubated for 1-2 h at room temperature. Prior to filtration, a GF/C 96-well filter plate was coated with 0.33% polyethyleneimine for 30 min, then washed with 50 mmol.L^−1 HEPES, pH 7.4, 0.5% BSA. Binding reactions were transferred to the filter plate, and washed 3 times with Wash Buffer (1 mL per well per wash). The plate was dried and radioactivity counted.
row,Compound,Ki [nM]
1,C[C@H](NC(=O)c1c(C(F)F)nn(C)c1Oc1cccc(Cl)c1)c1ccc(C(=O)O)cc1 [ER-886045-00],50
2,C[C@H](NC(=O)c1c(C(F)F)nn(C)c1Oc1cccc(C(F)F)c1)c1ccc(C(=O)O)cc1 [ER-887480-00],26
3,C[C@H](NC(=O)c1c(C(F)F)nn(C)c1Oc1cccc(OC(F)F)c1)c1ccc(C(=O)O)cc1 [ER-886090-00],10

# Continued, values first:
row,Ki [nM],Compound
1,8,Cn1nc(C(F)F)c(C(=O)NC2(c3ccc(C(=O)O)cc3)CC2)c1Oc1cccc(C(F)(F)F)c1 [ER-886078-00]
2,13,C[C@H](NC(=O)c1c(C(F)(F)F)nn(C)c1Oc1ccc(Cl)c(Cl)c1)c1ccc(C(=O)O)cc1 [ER-886074-00]
3,16,Cn1nc(C(F)(F)F)c(C(=O)NC2(c3ccc(C(=O)O)cc3)CC2)c1Oc1cccc(C(F)(F)F)c1 [ER-885741-00]
4,43,Cc1nn(C)c(Oc2cccc(C(F)(F)F)c2)c1C(=O)NC1(c2ccc(C(=O)O)cc2)CC1 [ER-885740-00]
5,14,Cc1nn(C)c(Oc2cccc(C(F)(F)F)c2)c1C(=O)N[C@@H](C)c1ccc(C(=O)O)cc1 [ER-885290-00]
